Experimental data: patent publication US8691800B2, “Quinoline derivatives as antibacterial agents” (Janssen Pharmaceutica N.V., priority 2005, dated 2014)
≈ marks a conversion by molar mass, not a printed value.

Assays:
[1] = system: Bacillus subtilis (ATCC43639); experiment: Microtitre plate assay, IC90 for bacterial growth; assay type: cell-based; conditions: for IC90: Bacillus subtilis, ATCC43639, 90% inhibitory concentration for bacterial growth, read-out: IC90 BSU 43639; for IC90 BSU 43639: 90% inhibitory concentration for bacterial growth
Protocol: (§1) The bacteria used in this study were grown overnight in flasks containing 100 ml Mueller-Hinton Broth (Becton Dickinson—cat. no. 275730) in sterile de-ionized water, with shaking, at 37° C. Stocks (0.5 ml/tube) were stored at 70° C. until use. Bacteria titrations were performed in microtiter plates and colony forming units (CFUs) were determined. In general, an inoculum level of approximately 100 CFUs was used for susceptibility testing.
(§2) Anti bacterial Susceptibility Testing: IC90 Determination
(§3) Flat-bottom, sterile 96-well plastic microtiter plates were filled with 180 μl of sterile deionized water, supplemented with 0.25% BSA. Subsequently, stock solutions (7.8× final test concentration) of compounds were added in 45 μl volumes in column 2. Serial five-fold dilutions (45 μl in 180 μl) were made directly in the microtiter plates from column 2 to reach column 11. Untreated control samples with (column 1) and without (column 12) inoculum were included in each microtiter plate. Depending on the bacteria type, approximately 10 to 60 CFU per well of bacteria inoculum (100 TCID50), in a volume of 100 μl in 2.8× Mueller-Hinton broth medium, was added to the rows A to H, except column 12. The same volume of broth medium without inoculum was added to column 12 in row A to H. The cultures were incubated at 37° C. for 24 hours under a normal atmosphere (incubator with open air valve and continuous ventilation). At the end of incubation, one day after inoculation, the bacterial growth was quantitated fluorometrically. Therefore resazurin (0.6 mg/ml) was added in a volume of 20 μl to all wells 3 hours after inoculation, and the plates were re-incubated overnight. A change in colour from blue to pink indicated the growth of bacteria. The fluorescence was read in a computer-controlled fluorometer (Cytofluor Biosearch) at an excitation wavelength of 530 nm and an emission wavelength of 590 nm. The % growth inhibition achieved by the compounds was calculated according to standard methods. The IC90 (expressed in μg/ml) was defined as the 90% inhibitory concentration for bacterial growth.

[2] = system: methicilline resistant Staphylococcus aureus (MRSA) (a clinical isolate from the University of Antwerp); experiment: Microtitre plate assay, IC90 for bacterial growth; assay type: cell-based; conditions: 90% inhibitory concentration for bacterial growth; for IC90: Staphylococcus aureus, MRSA, read-out: IC90 STA RMETHIC
Protocol: as §1, §2, §3

[3] = system: Enterococcus faecalis (ATCC14506); experiment: Microtitre plate assay, IC90 for bacterial growth; assay type: cell-based; conditions: 90% inhibitory concentration for bacterial growth; for IC90: read-out: IC90 EFA 14506
Protocol: as §1, §2, §3

[4] = system: Pseudomonas aeruginosa (ATCC27853); experiment: Microtitre plate assay, IC90 for bacterial growth; assay type: cell-based; conditions: for IC90: Pseudomonas aeruginosa, ATCC27853, 90% inhibitory concentration for bacterial growth, read-out: IC90 PAE 27853
Protocol: as §1, §2, §3

[5] = system: Streptococcus pneumoniae (ATCC6305); experiment: Microtitre plate assay, IC90 for bacterial growth; assay type: cell-based; conditions: for IC90: Streptococcus pneumoniae, ATCC6305, 90% inhibitory concentration for bacterial growth, read-out: IC90 SPN 6305; for IC90 SPN 6305: 90% inhibitory concentration for bacterial growth
Protocol: as §1, §2, §3

[6] = system: Staphylococcus aureus (ATCC29213); experiment: Microtitre plate assay, IC90 for bacterial growth; assay type: cell-based; conditions: 90% inhibitory concentration for bacterial growth, 24 hours at 37° C., resazurin; for IC90: Staphylococcus aureus, ATCC29213, 24 h, read-out: IC90 STA 29213
Protocol: as §1, §2, §3

[7] = system: Listeria monocytogenes (ATCC49594); experiment: Microtitre plate assay, IC90 for bacterial growth; assay type: cell-based; conditions: for IC90: Listeria monocytogenes, ATCC49594, 90% inhibitory concentration for bacterial growth, read-out: IC90 LMO 49594
Protocol: as §1, §2, §3

[8] = system: Staphylococcus aureus (ATCC25923); experiment: Microtitre plate assay, IC90 for bacterial growth; assay type: cell-based; conditions: for IC90: Staphylococcus aureus, ATCC25923, 90% inhibitory concentration for bacterial growth, read-out: IC90 STA 25923
Protocol: as §1, §2, §3

[9] = system: Streptococcus pyogens (ATCC8668); experiment: Microtitre plate assay, IC90 for bacterial growth; assay type: cell-based; conditions: for IC90: Streptococcus, ATCC8668, 90% inhibitory concentration for bacterial growth, read-out: IC90 SPY 8668
Protocol: as §1, §2, §3

[10] = system: Enterococcus faecalis (ATCC29212); experiment: Microtitre plate assay, IC90 for bacterial growth; assay type: cell-based; conditions: for IC90: Enterococcus faecalis, ATCC29212, 90% inhibitory concentration for bacterial growth, read-out: IC90 EFA 29212
Protocol: as §1, §2, §3

[11] = system: Escherichia coli (ATCC35218); experiment: Microtitre plate assay, IC90 for bacterial growth; assay type: cell-based; conditions: 90% inhibitory concentration for bacterial growth
Protocol: as §1, §2, §3

[12] = system: Staphylococcus aureus (ATCC43300); experiment: Microtitre plate assay, IC90 for bacterial growth; assay type: cell-based; conditions: 90% inhibitory concentration for bacterial growth
Protocol: as §1, §2, §3

[13] = system: Streptococcus mutans (ATCC33402); experiment: Microtitre plate assay, IC90 for bacterial growth; assay type: cell-based
Protocol: as §1, §2, §3

[14] = system: Escherichia coli (ATCC1403); experiment: Microtitre plate assay, IC90 for bacterial growth; assay type: cell-based
Protocol: as §1, §2, §3

[15] = system: Escherichia coli (ATCC25922); experiment: Microtitre plate assay, IC90 for bacterial growth; assay type: cell-based; conditions: 90% inhibitory concentration for bacterial growth, read-out: IC90 ECO 25922
Protocol: as §1, §2, §3

[16] = 90% inhibitory concentration for bacterial growth

melting point [°C] | IC90 [1] [µg/mL] | IC90 [3] [µg/mL] | IC90 [4] [µg/mL] | IC90 [5] [µg/mL] | IC90 [6] [µg/mL] | IC90 [7] [µg/mL] | IC90 [8] [µg/mL] | IC90 [9] [µg/mL] | IC90 [10] [µg/mL] | IC90 BSU 43639 [1] [µg/mL] | IC90 STA 43300 [12] [µg/mL] | IC90 SPN 6305 [5] [µg/mL] | Structure (SMILES) | IC90 [2] [µg/mL] | other results
168 | 12.7 (≈ 25.1 µM) | 40 (≈ 79.1 µM) | 10 (≈ 19.8 µM) | 12.7 (≈ 25.1 µM) | 12.7 (≈ 25.1 µM) | 12.7 (≈ 25.1 µM) | 12.7 (≈ 25.1 µM) | 12.7 (≈ 25.1 µM) | 12.7 (≈ 25.1 µM) |  |  |  | COc1nc2ccc(Br)cc2cc1C(c1ccccc1)C1(C2=CC=CCC2)CCN(C)CO1 (single isomer, unassigned) [Compound 8] | 12.7 (≈ 25.1 µM) | 
211 |  |  |  |  |  |  |  |  |  | 2.1 | 9.3 | 2.3 | COc1nc2ccc(Cl)cc2cc1C(c1ccccc1)C1(c2cccc3ccccc23)CC[N+](C)(C)CO1.[I-] (single isomer, unassigned) [Compound 15] |  | IC90 STA RMETHIC [2]: 1.9 µg/mL; IC90 EFA 14506 [3]: 2.1 µg/mL; IC90 ECO 35218 [11]: 41.6 µg/mL; IC90 PAE 27853 [4, 16]: 9.3 µg/mL; IC90 SMU 33402 [13, 16]: 1.9 µg/mL; IC90 STA 29213 [6]: 1.86 µg/mL; IC90 LMO 49594 [7, 16]: 2.1 µg/mL; IC90 STA 25923 [8, 16]: 2.1 µg/mL; IC90 SPY 8668 [9, 16]: 1.9 µg/mL; IC90 ECO 1403 [14, 16]: 10.5 µg/mL; IC90 [15]: 10.5 µg/mL; IC90 EFA 29212 [10, 16]: 2.1 µg/mL
189 | 12.8 (≈ 25.1 µM) | 12.8 (≈ 25.1 µM) | 12.8 (≈ 25.1 µM) | 12.8 (≈ 25.1 µM) | 12.8 (≈ 25.1 µM) | 12.8 (≈ 25.1 µM) | 12.8 (≈ 25.1 µM) | 12.8 (≈ 25.1 µM) | 12.8 (≈ 25.1 µM) |  |  |  | COc1nc2ccc(Cl)cc2cc1C(c1ccccc1)C1(c2cccc3ccccc23)CCN(C)CO1 (single isomer, unassigned) [Compound 14] | 12.8 (≈ 25.1 µM) | 
195 |  | 2.1 | 10.5 |  | 1.9 | 1.7 | 1.9 | 1.9 | 2.6 | 10.5 | 41.6 | 5.2 | COc1nc2ccc(Cl)cc2cc1C(c1ccccc1)C1(c2cccc3ccccc23)CC[N+](C)(C)CO1.[I-] (single isomer, unassigned) [Compound 16] | 2.1 | IC90 ([11]; read-out: IC90 ECO 35218): 41.6 µg/mL; IC90 ([13]; Streptococcus mutans, ATCC33402, 90% inhibitory concentration for bacterial growth, read-out: IC90 SMU 33402): 2.1 µg/mL; IC90 ([14]; Escherichia coli, ATCC1403, 90% inhibitory concentration for bacterial growth, read-out: IC90 ECO 1403): 13.2 µg/mL
